Experimental data published in patent US8952024B2, “Herbicidal pyrimidone derivatives” (E I du Pont de Nemours and Company, priority 2009, dated 2015).

Assays:
Assay in all cases: Test B pre-/postemergence plant response
Format in all cases: in vivo
Details in all cases: Postemergence
[1] = tested on: Italian ryegrass (Lolium multiflorum)
Summary of the method: (§1)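 Visually scored on a 0 to 100 scale after 13 to 15 days in greenhouse versus controls. Treatments were preemergence on seeded loam/sand soil and postemergence on 1- to 4-leaf plants.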

[2] = tested on: Surinam grass (Brachiaria decumbens)
Summary of the method: as §1

[3] = tested on: blackgrass (Alopecurus myosuroides)
Summary of the method: as §1

[4] = tested on: corn (Zea mays)
Summary of the method: as §1

[5] = tested on: downy bromegrass (Bromus tectorum)
Summary of the method: as §1

[6] = tested on: giant foxtail (Setaria faberii)
Summary of the method: as §1

[7] = tested on: johnsongrass (Sorghum halepense)
Summary of the method: as §1

[8] = tested on: kochia (Kochia scoparia)
Summary of the method: as §1

[9] = tested on: pigweed (Amaranthus retroflexus)
Summary of the method: as §1

[10] = tested on: ragweed (common ragweed, Ambrosia elatior)
Summary of the method: as §1

[11] = tested on: soybean (Glycine max)
Summary of the method: as §1

[12] = tested on: velvetleaf (Abutilon theophrasti)
Summary of the method: as §1

[13] = tested on: woolly cupgrass (Eriochloa villosa)
Summary of the method: as §1

[14] = 31 g ai/ha, 0 to 100 scale (0 no effect, 100 complete control)
[15] = 62 g ai/ha, scale 0 to 100 (0 no effect, 100 complete control)
[16] = 250 g ai/ha, scale 0 to 100 (0 no effect, 100 complete control), 13 to 15 days
[17] = 125 g ai/ha, scale 0 to 100 (0 no effect, 100 complete control)

SMILES: COCCn1c(-c2cccc(C)c2)ncc(C(=O)C2=C(O)C3CCC(C3)C2=O)c1=O (stereo not shown) [Compound 233]
- Plant response rating, Ryegrass, Italian [1, 14]: 30
- Plant response rating, Ryegrass, Italian [1, 15]: 45
- Plant response rating, Ryegrass, Italian [1, 16]: 60
- Plant response rating, Surinam Grass [2, 14]: 80
- Plant response rating, Surinam Grass [2, 15]: 85
- Plant response rating, Surinam Grass [2, 16]: 100
- Plant response rating, Blackgrass [3, 14]: 5
- Plant response rating, Blackgrass [3, 15]: 30
- Plant response rating, Blackgrass [3, 17]: 30
- Plant response rating, Blackgrass [3, 16]: 50
- Plant response rating, Corn [4, 14]: 30
- Plant response rating, Corn [4, 15]: 50
- Plant response rating, Corn [4, 17]: 85
- Plant response rating, Corn [4, 16]: 85
- Plant response rating, Bromegrass, Downy [5, 14]: 40
- Plant response rating, Bromegrass, Downy [5, 15]: 40
- Plant response rating, Bromegrass, Downy [5, 17]: 50
- Plant response rating, Bromegrass, Downy [5, 16]: 60
- Plant response rating, Foxtail, Giant [6, 14]: 90
- Plant response rating, Foxtail, Giant [6, 15]: 95
- Plant response rating, Foxtail, Giant [6, 17]: 98
- Plant response rating, Foxtail, Giant [6, 16]: 98
- Plant response rating, Johnsongrass [7, 14]: 0
- Plant response rating, Johnsongrass [7, 15]: 5
- Plant response rating, Johnsongrass [7, 17]: 25
- Plant response rating, Johnsongrass [7, 16]: 25
- Plant response rating, Kochia [8, 14]: 70
- Plant response rating, Kochia [8, 15]: 85
- Plant response rating, Pigweed [9, 14]: 85
- Plant response rating, Pigweed [9, 15]: 98
- Plant response rating, Ragweed [10, 14]: 80
- Plant response rating, Ragweed [10, 15]: 85
- Plant response rating, Ragweed [10, 16]: 98
- Plant response rating, Soybean [11, 14]: 98
- Plant response rating, Soybean [11, 15]: 98
- Plant response rating, Soybean [11, 16]: 100
- Plant response rating, Velvetleaf [12, 14]: 80
- Plant response rating, Velvetleaf [12, 15]: 85
- Plant response rating, Velvetleaf [12, 16]: 100
- Plant response rating, Cupgrass, Woolly [13, 14]: 80
- Plant response rating, Cupgrass, Woolly [13, 15]: 85
- Plant response rating, Cupgrass, Woolly [13, 17]: 100
- Plant response rating, Cupgrass, Woolly [13, 16]: 100
